For this test, the system named is Rat osteoblast-like cells (ROS 17/2.8). In words: [3H]-thymidine incorporation, proliferation of osteoblast-like cells. In kind it is cell-based. To be noted: ROS 17/2.8, 18 hrs incubation, 2 hrs pulse. The source says: Stimulation of osteoblast-like cell proliferation can be measured according to several art-recognized in vitro models. One such model is described in European Patent Publication No. 384,731, by Rodan et al, published Aug. 29, 1990, which is incorporated herein by reference. (Applicants have modified this method by reducing regent volumes to one-quarter those described and by utilizing Dulbecco's Modified eagle's Medium (DMEM).) In this model, proliferation (division) of, for example, rat osteoblast-like cells (rat osteosarcoma (ROS) cells, rat calvaria cells, etc.) is observed by measuring the amount of radiolabeled thymidine ([^3 H]thymidine) incorporated by these cells. ([^3 H]thymidine is "incorporated" by cellular DNA being synthesized as a result of cell proliferation.) The greater the level of [^3 H]thymidine measured, the greater the amount of proliferation of the osteoblast cells.
More specifically, a test sample (comprised of a test compound and osteoblast-like cells) and a control sample (comprised of only osteoblast-like cells) are pulsed with [^3 H]thymidine. The amount of [^3 H]thymidine incorporated by the cells is measured using a direct beta counter.
Rat osteoblast-like cells (ROS 17/2.8) are plated at 4×10^3 cells/well in a 96-well plate in Dulbecco's Modified eagle's Medium supplemented with 2% (v/v) Fetal Bovine Serum, and incubated for 6 hrs. Control (serum-free) medium and test medium (test sample and serum-free medium) are then added to the cells and this combination is incubated for 18 hrs. The cells are then pulsed with [^3 H]-thymidine (1 μCi/well) for 2 hrs. The medium is then removed, the cells are harvested onto glass fibre filters and the amount of [^3 H]-thymidine (counts per minute per well) incorporated into DNA is then determined using a direct beta counter. Values for control groups are then compared to values for treated groups.
The compound H-Tyr-D-Ala-Gly-Phe-D-Leu-OH ("DADLE") is screened to determine whether it stimulates proliferation of osteoblast-like cells. […] The medium is then removed, the cells are harvested onto glass fibre filters, and the amount of ^3 H-thymidine (counts per minute per well) incorporated into DNA is determined using a direct beta counter. […]
The compound Tyr-D-Cys(S-t-butylthioether)-Gly-Phe-Leu-Thr(O-t-butylether) ("BUBUC") is screened to determine whether it stimulates proliferation of osteoblast-like cells. […] The medium is then removed, the cells are harvested onto glass fibre filters, and the amount of ^3 H-thymidine (counts per minute per well) incorporated into DNA is determined using a direct beta counter. […]
Background: Incorporation of labelled thymidine or its analogues reports DNA synthesis.

`O=C(O)CNC(=O)C(CS)Cc1ccccc1` (racemic) [DL-3-mercapto-2-benzyl-propanoylglycine]: the “[3H]-thymidine incorporation (proliferation) vs control” value is on record as “significantly stimulated proliferation of the osteoblast-like cells”.

The record behind these values is US5403824A, “Methods for the treatment of osteoporosis” (The Procter & Gamble Company, priority 1993, dated 1995).
